From patent US12281149B2, “Modulators of G-protein coupled receptors” (priority 2021, dated 2025)
Read-outs that look alike come from different tables or passages of the source. *1 amine or outer side, *2 acyl side, *3 side chain or, on linkers, in order; H or OH if unused. Where a SMILES comes first, the peptide text is derived from it. Side-chain parts run from the residue outwards. [ ]: non-standard residue; d: D form. The star is where a group is joined. Isobutyryl(2-(3-CN-5-F-Ph)) = CC(C)(C(=O)*)c1cc(F)cc(C#N)c1; Azetidine3carboxylic = O=C(C1CN([*:1])C1)[*:2]; C20 diacid = O=C(O)CCCCCCCCCCCCCCCCCCC(=O)*; X52 = CC(C)(C(=O)*)c1cc(F)cc(OC(F)(F)F)c1; Phenylacetyl(3-Cl) = O=C(Cc1cccc(Cl)c1)*; γGlu = O=C(O)[C@H](CCC(=O)[*:2])N[*:1]; X50 = CC(C)(N*)c1ccc(F)c(F)c1; Suc = O=C(CCC(=O)[*:2])[*:1]; X78 = CC(C)(C(=O)*)C1CCCCC1; AEEA = NCCOCCOCC(=O)O; Aib = CC(C)(N)C(=O)O; βAla = NCCC(=O)O

What was measured:
Assay type in all cases: cell-based
GLP-1 receptor [1] = molecular target: T1, GLP-1 receptor (Homo sapiens, UniProt P43220); assay: PathHunter β-arrestin assay, GLP-1 receptor; parameters: host or cells: PathHunter CHO-K1 GLP1R β-Arrestin Cell Line
GIP receptor [2] = molecular target: T2, GIP receptor (Homo sapiens, UniProt P48546); assay: PathHunter β-arrestin assay, GIP receptor; parameters: host or cells: PathHunter CHO-K1 GIPR β-Arrestin Cell Line
T2 sequence (P48546 22-466): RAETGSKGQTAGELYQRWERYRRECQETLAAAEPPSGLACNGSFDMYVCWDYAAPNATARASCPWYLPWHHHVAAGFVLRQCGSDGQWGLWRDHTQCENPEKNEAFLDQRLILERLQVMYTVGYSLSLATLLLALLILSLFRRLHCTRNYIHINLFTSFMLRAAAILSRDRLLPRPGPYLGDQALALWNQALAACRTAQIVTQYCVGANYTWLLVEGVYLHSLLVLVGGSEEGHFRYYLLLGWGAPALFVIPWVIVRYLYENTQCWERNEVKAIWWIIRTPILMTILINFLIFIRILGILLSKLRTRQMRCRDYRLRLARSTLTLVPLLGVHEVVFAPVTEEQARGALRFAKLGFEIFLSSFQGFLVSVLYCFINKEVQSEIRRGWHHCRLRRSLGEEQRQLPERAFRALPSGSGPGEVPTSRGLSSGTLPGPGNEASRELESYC

GLP-1 receptor [3] = molecular target: T1, GLP-1 receptor; assay: HitHunter cAMP assay, GLP-1 receptor; conditions: for Emax: read-out: Emax GLP-1R
GIP receptor [4] = molecular target: T2, GIP receptor; assay: HitHunter cAMP assay, GIP receptor; conditions: for Emax: read-out: Emax GIP-1R
[5] = β-arrestin-2 recruitment, PathHunter CHO-K1 GLP1R β-Arrestin Cell Line, 90 min at 37° C., normalized to GLP-1, read-out: GLP-1R β Arrestin EC50
[6] = β-arrestin-2 recruitment, PathHunter CHO-K1 GIPR β-Arrestin Cell Line, 90 min at 37° C., normalized to GIP, read-out: GIPR β Arrestin EC50
[7] = CHO cells stably expressing human GLP-1 receptor, cAMP accumulation, 30 min, read-out: EC50 GLP-1R
[8] = CHO cells, cAMP, normalized to maximum signal from GLP-1 (high) and DMSO (low)
[9] = CHO cells stably expressing GIP receptor, cAMP accumulation, 30 min, read-out: EC50 GIP-1R
[10] = CHO cells, cAMP, normalized to maximum signal from GIP (high) and DMSO (low)

T1 sequence (P43220 24-463): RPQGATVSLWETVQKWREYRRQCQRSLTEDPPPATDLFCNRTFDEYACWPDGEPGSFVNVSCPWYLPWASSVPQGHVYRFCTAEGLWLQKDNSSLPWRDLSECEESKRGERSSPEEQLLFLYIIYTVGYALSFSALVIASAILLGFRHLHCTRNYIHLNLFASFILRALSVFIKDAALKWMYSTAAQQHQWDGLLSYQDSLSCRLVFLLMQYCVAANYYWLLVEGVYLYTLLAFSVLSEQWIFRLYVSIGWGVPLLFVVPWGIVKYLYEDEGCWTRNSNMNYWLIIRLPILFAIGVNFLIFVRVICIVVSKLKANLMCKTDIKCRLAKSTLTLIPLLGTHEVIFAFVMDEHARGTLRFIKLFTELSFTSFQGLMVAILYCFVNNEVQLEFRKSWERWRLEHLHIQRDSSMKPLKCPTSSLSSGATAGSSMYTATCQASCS

SMILES	EC50 (GLP-1 receptor [1]; [5]) [nM]	EC50 (GIP receptor [2]; [6]) [nM]	EC50 (GLP-1 receptor [3]; [7]) [nM]	Emax (GLP-1 receptor [3]; [8]) [%]	EC50 (GIP receptor [4]; [9]) [nM]	Emax (GIP receptor [4]; [10]) [%]	EC50 (GLP-1 receptor [1]) [nM]	EC50 (GIP receptor [2]) [nM]	EC50 (GLP-1 receptor [3]) [nM]	Emax (GLP-1 receptor [3]; CHO) [%]	EC50 (GIP receptor [4]) [nM]	Emax (GIP receptor [4]; CHO) [%]
CC[C@H](C)[C@H](NC(=O)[C@H](CC(C)C)NC(=O)[C@H](Cc1c[nH]c2ccccc12)NC(=O)[C@H](CCC(N)=O)NC(=O)[C@@H](NC(=O)[C@H](Cc1ccccc1)NC(=O)[C@H](C)NC(=O)[C@H](CCCCNC(=O)COCCOCCNC(=O)COCCOCCNC(=O)CC[C@H](NC(=O)CCCCCCCCCCCCCCCCCCC(=O)O)C(=O)O)NC(=O)[C@H](CCC(N)=O)NC(=O)[C@H](C)NC(=O)[C@@H](NC(=O)[C@H](CCCCN)NC(=O)[C@H](CC(=O)O)NC(=O)[C@H](CC(C)C)NC(=O)C(C)(C)NC(=O)[C@@H](NC(=O)[C@H](CO)NC(=O)[C@H](Cc1ccc(O)cc1)NC(=O)[C@H](CC(=O)O)NC(=O)[C@H](CO)NC(=O)[C@@H](NC(=O)[C@H](Cc1ccccc1)NC(=O)[C@@H](NC(=O)CNC(=O)[C@H](CCC(=O)O)NC(=O)C1CN(C(=O)C(C)(C)c2cc(F)cc(C#N)c2)C1)[C@@H](C)O)[C@@H](C)O)[C@@H](C)CC)[C@@H](C)CC)C(C)C)C(=O)N[C@@H](C)C(=O)NCC(=O)NCC(=O)N1CCC[C@H]1C(=O)N[C@@H](CO)C(=O)N[C@@H](CO)C(=O)NCC(=O)N[C@@H](C)C(=O)N1CCC[C@H]1C(=O)N1CCC[C@H]1C(=O)N1CCC[C@H]1C(=O)N[C@@H](CO)C(N)=O [Compound 213] ({Isobutyryl(2-(3-CN-5-F-Ph))}-[Azetidine3carboxylic]EGTFTSDYSI[Aib]LDKIAQK([AEEA-AEEA-γGlu-C20 diacid])AFVQWLIAGGPSSGAPPPS-NH2)	> 1000	> 1000	100 to 1000	78	100 to 1000	92	–	–	–	–	–	–
CC[C@H](C)[C@H](NC(=O)[C@H](CC(C)C)NC(=O)[C@H](Cc1c[nH]c2ccccc12)NC(=O)[C@H](CCC(N)=O)NC(=O)[C@@H](NC(=O)[C@H](Cc1ccccc1)NC(=O)[C@H](C)NC(=O)[C@H](CCCCNC(=O)COCCOCCNC(=O)COCCOCCNC(=O)CC[C@H](NC(=O)CCCCCCCCCCCCCCCCCCC(=O)O)C(=O)O)NC(=O)[C@H](CCC(N)=O)NC(=O)[C@H](C)NC(=O)[C@@H](NC(=O)[C@H](CCCCN)NC(=O)[C@H](CC(=O)O)NC(=O)[C@H](CC(C)C)NC(=O)C(C)(C)NC(=O)[C@@H](NC(=O)[C@H](CO)NC(=O)[C@H](Cc1ccc(O)cc1)NC(=O)[C@H](CC(=O)O)NC(=O)[C@H](CO)NC(=O)[C@@H](NC(=O)[C@H](Cc1ccccc1)NC(=O)[C@@H](NC(=O)CNC(=O)[C@H](CCC(=O)O)NC(=O)CCNC(=O)C(C)(C)c1cc(F)cc(OC(F)(F)F)c1)[C@@H](C)O)[C@@H](C)O)[C@@H](C)CC)[C@@H](C)CC)C(C)C)C(=O)N[C@@H](C)C(=O)NCC(=O)NCC(=O)N1CCC[C@H]1C(=O)N[C@@H](CO)C(=O)N[C@@H](CO)C(=O)NCC(=O)N[C@@H](C)C(=O)N1CCC[C@H]1C(=O)N1CCC[C@H]1C(=O)N1CCC[C@H]1C(=O)N[C@@H](CO)C(N)=O [Compound 112] ({X52-βAla}-EGTFTSDYSI[Aib]LDKIAQK([AEEA-AEEA-γGlu-C20 diacid])AFVQWLIAGGPSSGAPPPS-NH2)	> 1000	> 1000	1 to 10	115	100 to 1000	99	–	–	–	–	–	–
CC[C@H](C)[C@H](NC(=O)[C@H](CC(C)C)NC(=O)[C@H](Cc1c[nH]c2ccccc12)NC(=O)[C@H](CCC(N)=O)NC(=O)[C@@H](NC(=O)[C@H](Cc1ccccc1)NC(=O)[C@H](C)NC(=O)[C@H](CCCCNC(=O)COCCOCCNC(=O)COCCOCCNC(=O)CC[C@H](NC(=O)CCCCCCCCCCCCCCCCCCC(=O)O)C(=O)O)NC(=O)[C@H](CCC(N)=O)NC(=O)[C@H](C)NC(=O)[C@@H](NC(=O)[C@H](CCCCN)NC(=O)[C@H](CC(=O)O)NC(=O)[C@H](CC(C)C)NC(=O)C(C)(C)NC(=O)[C@@H](NC(=O)[C@H](CO)NC(=O)[C@H](Cc1ccc(O)cc1)NC(=O)[C@H](CC(=O)O)NC(=O)[C@H](CO)NC(=O)[C@@H](NC(=O)[C@H](Cc1ccccc1)NC(=O)[C@@H](NC(=O)CNC(=O)[C@H](CCC(=O)O)NC(=O)CCNC(=O)CNC(=O)Cc1cccc(Cl)c1)[C@@H](C)O)[C@@H](C)O)[C@@H](C)CC)[C@@H](C)CC)C(C)C)C(=O)N[C@@H](C)C(=O)NCC(=O)NCC(=O)N1CCC[C@H]1C(=O)N[C@@H](CO)C(=O)N[C@@H](CO)C(=O)NCC(=O)N[C@@H](C)C(=O)N1CCC[C@H]1C(=O)N1CCC[C@H]1C(=O)N1CCC[C@H]1C(=O)N[C@@H](CO)C(N)=O [Compound 230] ({Phenylacetyl(3-Cl)}-G[βAla]EGTFTSDYSI[Aib]LDKIAQK([AEEA-AEEA-γGlu-C20 diacid])AFVQWLIAGGPSSGAPPPS-NH2)	–	–	–	–	–	–	> 1000	> 1000	1 to 10	99	10 to 100	96
CC[C@H](C)[C@H](NC(=O)[C@H](CC(C)C)NC(=O)[C@H](Cc1c[nH]c2ccccc12)NC(=O)[C@H](CCC(N)=O)NC(=O)[C@@H](NC(=O)[C@H](Cc1ccccc1)NC(=O)[C@H](C)NC(=O)[C@H](CCCCNC(=O)COCCOCCNC(=O)COCCOCCNC(=O)CC[C@H](NC(=O)CCCCCCCCCCCCCCCCCCC(=O)O)C(=O)O)NC(=O)[C@H](CCC(N)=O)NC(=O)[C@H](C)NC(=O)[C@@H](NC(=O)[C@H](CCCCN)NC(=O)[C@H](CC(=O)O)NC(=O)[C@H](CC(C)C)NC(=O)C(C)(C)NC(=O)[C@@H](NC(=O)[C@H](CO)NC(=O)[C@H](Cc1ccc(O)cc1)NC(=O)[C@H](CC(=O)O)NC(=O)[C@H](CO)NC(=O)[C@@H](NC(=O)[C@H](Cc1ccccc1)NC(=O)[C@@H](NC(=O)CNC(=O)[C@H](CCC(=O)O)NC(=O)CCNC(=O)C(C)(C)C1CCCCC1)[C@@H](C)O)[C@@H](C)O)[C@@H](C)CC)[C@@H](C)CC)C(C)C)C(=O)N[C@@H](C)C(=O)NCC(=O)NCC(=O)N1CCC[C@H]1C(=O)N[C@@H](CO)C(=O)N[C@@H](CO)C(=O)NCC(=O)N[C@@H](C)C(=O)N1CCC[C@H]1C(=O)N1CCC[C@H]1C(=O)N1CCC[C@H]1C(=O)N[C@@H](CO)C(N)=O [Compound 205] ({X78-βAla}-EGTFTSDYSI[Aib]LDKIAQK([AEEA-AEEA-γGlu-C20 diacid])AFVQWLIAGGPSSGAPPPS-NH2)	> 1000	> 1000	1 to 10	99	10 to 100	99	–	–	–	–	–	–
CC[C@H](C)[C@H](NC(=O)[C@H](CC(C)C)NC(=O)[C@H](Cc1c[nH]c2ccccc12)NC(=O)[C@H](CCC(N)=O)NC(=O)[C@@H](NC(=O)[C@H](Cc1ccccc1)NC(=O)[C@H](C)NC(=O)[C@H](CCCCNC(=O)COCCOCCNC(=O)COCCOCCNC(=O)CC[C@H](NC(=O)CCCCCCCCCCCCCCCCCCC(=O)O)C(=O)O)NC(=O)[C@H](CCC(N)=O)NC(=O)[C@H](C)NC(=O)[C@@H](NC(=O)[C@H](CCCCN)NC(=O)[C@H](CC(=O)O)NC(=O)[C@H](CC(C)C)NC(=O)C(C)(C)NC(=O)[C@@H](NC(=O)[C@H](CO)NC(=O)[C@H](Cc1ccc(O)cc1)NC(=O)[C@H](CC(=O)O)NC(=O)[C@H](CO)NC(=O)[C@@H](NC(=O)[C@H](Cc1ccccc1)NC(=O)[C@@H](NC(=O)CNC(=O)[C@H](CCC(=O)O)NC(=O)CCC(=O)NC(C)(C)c1ccc(F)c(F)c1)[C@@H](C)O)[C@@H](C)O)[C@@H](C)CC)[C@@H](C)CC)C(C)C)C(=O)N[C@@H](C)C(=O)NCC(=O)NCC(=O)N1CCC[C@H]1C(=O)N[C@@H](CO)C(=O)N[C@@H](CO)C(=O)NCC(=O)N[C@@H](C)C(=O)N1CCC[C@H]1C(=O)N1CCC[C@H]1C(=O)N1CCC[C@H]1C(=O)N[C@@H](CO)C(N)=O [Compound 280] ({X50-Suc}-EGTFTSDYSI[Aib]LDKIAQK([AEEA-AEEA-γGlu-C20 diacid])AFVQWLIAGGPSSGAPPPS-NH2)	> 1000	> 1000	1 to 10	90	1 to 10	114	–	–	–	–	–	–
